Laboratory results published in US20100113517A1, “METHOD FOR THE TREATMENT OF FABRY DISEASE USING PHARMACOLOGICAL CHAPERONES” (AMICUS THERAPEUTICS, INC., priority 2007, published 2010).
Read-outs that look alike come from different tables or passages of the source.

Key:
[1] = Phase I ascending single oral dose study, pharmacokinetics; type: in vivo, healthy volunteers (human); settings: for half-life / Tmax / CL renal / AUC(0-inf) / AUC(0-t) / Cmax: male, human; for half-life / Tmax / AUC(0-inf) / AUC(0-t) / Cmax: plasma; for CL renal / Ae, cumulative percentage of DGJ excreted over the 12-hour postdose period: urine; for AUC(0-inf) / AUC(0-t) / Cmax: geometric mean
Experimental: This example describes a randomized, double blind, placebo controlled Phase I study of ascending single oral dose of DGJ to evaluate the safety, tolerability and pharmacokinetics of DGJ in healthy volunteers.
(§1) Study Design and Duration. […] Dose escalation to the next dose level (i.e., next group) proceeded following review of safety and tolerability of the previous group(s). Subjects were housed in the treatment facility from 14 hours prior to dosing until 24 hours after dosing. Meals were controlled by schedule and subjects remained abulatory for 4 hours post drug administration.
Study Population. Subjects were healthy, non-institutionalized, non-smoking male volunteers between 19 and 50 years of age (inclusive) consisting of members of the community at large.
Pharmacokinetic Sampling. Blood samples (10 mL each) were collected in blood collection tubes containing EDTA before dosing and at the following times thereafter: 0.25, 0.5, 0.75, 1, 1.5, 2, 3, 4, 5, 6, 8, 10, 12, 16 and 24 hours. Blood samples were cooled in an ice bath and centrifuged under refrigeration as soon as possible. Plasma samples were divided into two aliquots an dstored at […] pending assay. At the end of the study, all samples were transferred to MDS Pharma Services Analytical Laboratories (Lincoln) for analysis.
Pharmacokinetic parameters were summarised by treatment group using descriptive statistics (arithmetic means, standard deviations, coefficients of variation, sample size, minimum, maximum and median). In addition, geometric means were calculated for AUC0-t, AUCinf and Cmax.

[2] = target: T1, human mutant α-Gal A (R301Q) (Homo sapiens, UniProt P06280, R301Q); settings: neutral pH; cited from earlier work
T1 construct: Tissue lysates were prepared by homogenizing about 50 mg tissue in assay buffer; from tissue; host or cells: heart, kidney, skin, liver and spleen of R301Q Tg/KO mice (human transgene, mouse α-Gal A knocked out)
T1 sequence (P06280 32-429 R301Q): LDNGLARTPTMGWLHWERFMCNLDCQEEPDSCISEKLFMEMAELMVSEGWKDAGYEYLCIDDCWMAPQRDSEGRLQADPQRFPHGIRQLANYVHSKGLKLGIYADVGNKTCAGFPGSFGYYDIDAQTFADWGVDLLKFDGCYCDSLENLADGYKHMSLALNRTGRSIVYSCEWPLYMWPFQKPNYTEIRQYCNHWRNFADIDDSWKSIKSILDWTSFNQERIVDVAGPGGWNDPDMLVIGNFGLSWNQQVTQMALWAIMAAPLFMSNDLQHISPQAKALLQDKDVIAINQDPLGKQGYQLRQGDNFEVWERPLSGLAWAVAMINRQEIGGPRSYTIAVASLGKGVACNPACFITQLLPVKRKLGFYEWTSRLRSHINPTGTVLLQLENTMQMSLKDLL

[3] = Phase Ib twice daily oral dose study, safety and tolerability; type: in vivo, healthy volunteers (human)
Experimental: Study Design and Duration. […] Subjects were housed in the treatment facility from 14 hours prior to dosing until 24 hours after dosing. Meals were controlled by schedule and subjects remained abulatory for 4 hours post drug administration
(§2) Safety and Tolerability Assessments.
WBC α-GAL A Enzymatic Activity Sampling. Blood samples (10 mL each) were collected in blood collection tubes containing EDTA and WBC extracted before dosing and at the following times thereafter: 100 hours, 150 hours, and 336 hours. Samples were treated as described above, and WBC α-Gal A enzymatic activity levels were determined as described in Desnick, R. J. (ed) Enzyme therapy in genetic diseases. Vol 2. Alan R Liss, New York, pp 17-32. Statistical Analysis. Safety data including laboratory evaluations, physical exams, adverse events, ECG monitoring and vital signs assessments were summarized by treatment group and point of time of collection. Descriptive statistics (arithmetic mean, standard deviation, median, minimum and maximum) were calculated for quantitative safety data as well as for the difference to baseline. Frequency counts were compiled for classification of qualitative safety data. In addition, a shift table describing out of normal range shifts was provided for clinical laboratory results. A normal-abnormal shift table was also presented for physical exam results and ECGs. […]

[4] = target: T2, mutant (R301Q) α-Gal A (Homo sapiens, UniProt P06280, R301Q); settings: oral administration; cited from earlier work
T2 construct: host or cells: major organs of transgenic mice overexpressing R301Q α-Gal A
T2 sequence (P06280 32-429 R301Q): T1 sequence (P06280 32-429 R301Q)

[5] = Phase I ascending single oral dose study, safety and tolerability; type: in vivo, healthy volunteers (human); settings: healthy male subjects, single doses 25 mg through 675 mg
Experimental: as §1, §2
Statistical Analysis. Safety data including laboratory evaluations, physical exams, adverse events, ECG monitoring and vital signs assessments were summarized by treatment group and point of time of collection. Descriptive statistics (arithmetic mean, standard deviation, median, minimum and maximum) were calculated for quantitative safety data as well as for the difference to baseline. Frequency counts were compiled for classification of qualitative safety data. In addition, a shift table describing out of normal range shifts was provided for clinical laboratory results. A normal-abnormal shift table was also be presented for physical exam results and ECGs.
Concomitant medications and medical history were listed by treatment.

time of peak concentrations, on average ([1]; all dose levels (25-675 mg single dose)): approximately 3 hours
increase of AUC and Cmax with dose ([1]; doses increased from 25 mg to 225 mg): dose-proportional manner
half-life ([1]; oral, 25-675 mg single dose, read-out: mean half-life across all dose levels): 3 to 4.6 h
Tmax ([1]; single oral dose 25 mg): 3 h
half-life ([1]; single oral dose 25 mg, read-out: t1/2 (converted)): 3.04 h
Tmax ([1]; single oral dose 75 mg): 2.92 h
half-life ([1]; single oral dose 75 mg, read-out: t1/2 (converted)): 4.05 h
Tmax ([1]; single oral dose 225 mg): 3.17 h
half-life ([1]; single oral dose 225 mg, read-out: t1/2 (converted)): 4.62 h
Tmax ([1]; single oral dose 675 mg): 2.67 h
half-life ([1]; single oral dose 675 mg, read-out: t1/2 (converted)): 4.19 h
CL renal ([1]; oral, as doses increased from 25 mg to 675 mg, read-out: mean renal clearance): 98.3 to 128 mL/min
CL renal ([1]; single oral dose 25 mg, read-out: CLR (converted)): 98.3 mL/min
CL renal ([1]; single oral dose 75 mg, read-out: CLR (converted)): 95.5 mL/min
CL renal ([1]; single oral dose 225 mg, read-out: CLR (converted)): 126 mL/min
CL renal ([1]; single oral dose 675 mg, read-out: CLR (converted)): 128 mL/min
AUC(0-inf) ([1]; single oral dose 25 mg): 1130 ng·h/mL
AUC(0-t) ([1]; single oral dose 25 mg): 1090 ng·h/mL
Cmax ([1]; single oral dose 25 mg): 201 ng/mL
AUC(0-inf) ([1]; single oral dose 75 mg): 4730 ng·h/mL
AUC(0-t) ([1]; single oral dose 75 mg): 4660 ng·h/mL
Cmax ([1]; single oral dose 75 mg): 685 ng/mL
AUC(0-inf) ([1]; single oral dose 225 mg): 11400 ng·h/mL
AUC(0-t) ([1]; single oral dose 225 mg): 11200 ng·h/mL
Cmax ([1]; single oral dose 225 mg): 2000 ng/mL
AUC(0-inf) ([1]; single oral dose 675 mg): 35700 ng·h/mL
AUC(0-t) ([1]; single oral dose 675 mg): 35300 ng·h/mL
Cmax ([1]; single oral dose 675 mg): 6490 ng/mL
Structure (SMILES): OCC1NCC(O)C(O)C1O (stereo not shown) [DGJ, 1-deoxygalactonojirimycin]
Ae, cumulative percentage of DGJ excreted over the 12-hour postdose period ([1]; single oral dose 25 mg): 8.78%
Ae, cumulative percentage of DGJ excreted over the 12-hour postdose period ([1]; single oral dose 75 mg): 23.4%
Ae, cumulative percentage of DGJ excreted over the 12-hour postdose period ([1]; single oral dose 225 mg): 40.3%
Ae, cumulative percentage of DGJ excreted over the 12-hour postdose period ([1]; single oral dose 675 mg): 39.6%
in vitro stability of mutant α-Gal A [2]: effectively increased
adverse events (AEs) ([3]; after 50 mg b.i.d. or 150 mg b.i.d.): no subject presented with AEs
safety and tolerability ([3]; healthy male subjects, 50 mg b.i.d. and 150 mg b.i.d., seven days): safe and well tolerated
enzyme activity in major organs [4]: substantially elevated
safety and tolerability [5]: safe and well tolerated
